Assay: ORAC (OARC-fluorescein) determination of the antioxidant effect, Trolox as standard
Settings: OARC-fluorescein method; calibration curve with Trolox as standard
Description: The antioxidant effect and the synergy between the individual components were determined according to the OARC-fluorescein method, in which inhibition time and the inhibition degree are reflected in a measured value. The measurements were performed by means of the device Synergy H4 by BioTek Inc., the calculated values were taken from a calibration curve with Trolox used as a standard. The method is described in more detail, for example, in the publications by Prior et. al., J. Agric Food. Chem. 50, pp. 4437-4444 […] and Dovalos et. al, ibid 52, pp. […] (2004). These publications are incorporated into this patent application by reference with regard to the description of the measuring method.

Compound: COc1cc(C=CC(=O)O)cc(OC)c1O (stereo in doubt) [Example V2, Sinapinic acid]
- ORAC value, Measured: 11.459

Compound: O=C(O)/C=C/c1ccc(O)c(O)c1 [Example V1, Caffeic acid]
- ORAC value, Measured: 21.587

From patent US9078872B2, “Antioxidant composition” (Symrise AG, priority 2013, dated 2015)
